The values that follow come from US6960559B1, “Neurite growth regulatory factors” (University of Zurich, priority 1988, dated 2005).

Data set [1] relates to C6 cells. Briefly: C6 cell spreading on CNS myelin or PLYS with protease inhibitors. It counts as cell-based, rat. Conditions: for Inhibition on CNS (%): spreading on PLYS minus spreading on CNS myelin. The method, then: Rat C6, mouse NIH 3T3 and B16 cells were cultured in Dulbecco's modified Eagle's medium (DMEM) supplemented with 10% fetal calf serum (FCS), usually to maximally 70-80% confluency. Cells were harvested with a short trypsin treatment (0.1% in Ca^2+/Mg^2+-free Hank's medium for 90 seconds) stopped by addition of FCS in excess, collected by centrifugation. Cells were resuspended in either DMEM/FCS or defined serum-free medium (MEM) and used for experiments. Dissociated rat CNS glial cells were prepared starting from optic nerves of 6-7 days old Lewis rats as described in Section 6.1.1, supra and plated into poly-D-lysine (PLYS) coated wells (100 mm^2, 100 μl medium) at a density of 20,000 cells per well. The culture medium was an enriched L15 medium with 5% rat serum, penicillin and streptomycin. C6, 3T3 and B16 cells were added to 2 day old cultures at a concentration of 30,000 cells per well, incubated for two hours and fixed with warm 4% formalin in phosphate buffer. Inhibitory oligodendrocytes were identified by double labelling using the specific antibodies O1 and O4 (see Section 6.1.3, supra).
Myelin from rat spinal cord (CNS) or sciatic nerve (PNS) purified on a discontinuous sucrose gradient as described in Section 6.1.5., was dried overnight onto PLYS coated wells (20 μg protein/well of 100 mm^2 surface). Unbound membranes were removed by three washes with Ca^2+/Mg^2+-free Hank's solution. Myelin coated wells were immediately used in substrate testing assays by the addition of 9,000 cells (C6, 3T3, or B16) per cm^2. Alternatively, we used extracted CNS myelin protein, or SDS-PAGE purified 35 and 250 kD inhibitory proteins reconstituted in liposomes (see Section 7.1.5, supra). Experiments were scored at different time points using a phase contrast microscope equipped with a photocamera. Quantifications were done using a surface integration program; three arbitrary fields were photographed for each well at a magnitude of 80×, at least 25 cells per picture were measured. Each point represents the mean of at least 3 wells±SEM. Results are expressed as μ^2 of projected cell surface, or as degree, which was calculated by subtracting from the projected surface value of a spreading cell, the surface value of a completely spheric cell.

A further data set has as its system 3T3 cells. Briefly: Treatment of CNS myelin with C6 plasma membranes, 3T3 spreading and 3H-thymidine incorporation. It counts as cell-based, mouse. Conditions: 3T3 spreading on CNS myelin pretreated with C6 plasma membranes. As to the method:
C6 cells grown to 80% confluency were washed twice with Hank's medium, and harvested in 20 ml 8.5% sucrose, 50 mM NaCl, 10 mM Tris buffer, pH 7.4, using a rubber policeman. After mechanical homogenization through a series of needles of decreasing size, a low purity plasma membrane fraction was obtained by centrifugation (5 minutes at 3000×g, 10 minutes at 8000×g, and then 2 hours at 100,000×g). A higher purity fraction was isolated by loading the material on a discontinuous sucrose gradient, containing 50 mM NaCl, 10 mM Tris, pH 7.4 (Quigley, 1976, J. Cell Biol. 71: 472-486). 20-40% sucrose interphase (C6 plasma membranes fraction) and 40-60% sucrose interphase (C6 mitochondrial fraction) were collected, washed in Hank's medium and resuspended in MEM.
CNS myelin coated PLYS wells were prepared as described in the previous section, but instead of being immediately tested as substrate, they were first incubated with 50 μl of C6 plasma membranes (containing 0.8 mg protein/ml MEM) at 37° for 30 minutes. Dishes were then rinsed twice with Hank's medium and immediately used as substrates for 3T3 cells. In some experiments, protease blockers were added to the membranes using 10 times concentrated solutions.

The test system of data set [2] is C6 cells. Briefly: C6 cell attachment and spreading on rat cerebellar frozen sections. It counts as cell-based. Conditions: 1,10-phenanthroline 50-300 μM; cbz-tyr-tyr 100 μM. As to the method: Adult rat cerebellum frozen sections were prepared and dried on glass coverslips. 70,000 C6, 3T3, or B16 cells in 100 μl were added to each well containing slices previously rinsed with cold DMEM/FCS. Cultures were incubated for 2 days at 37° C. Cultures were then fixed and stained with cresyl violet. Three to four cerebellum slices were used per point per experiment, with each experiment being repeated at least 2 times.

Another data set deals with C6 glioblastoma cells. The data set is described as follows: cells. It counts as cell-based, rat. Conditions: 2 h. As to the method:
Rat C6 glioblastoma cells (Benda et al., 1968, Science 161:370-371) were cultured in Dulbecco's modified Eagle's medium (DMEM) supplemented with 10% fetal calf serum (FCS), usually to maximally 70-80% confluency (Paganetti et al., 1988, J. Cell Biol. 107:2281-2291). All cell culture media were routinely supplemented with penicillin and streptomycin. Cells were harvested by a short trypsin treatment (0.1% in Ca^2+/Mg^2+-free [CMF] PBS/EDTA solution for 90 seconds) followed by addition of DMEM/10% FCS and centrifugation (600×g, 6 min). The cell pellet was rinsed with 5 ml DMEM/10% FCS and centrifuged. For cell spreading assays, cells were resuspended at 10^6/ml in defined serum-free medium (MEMα) supplemented with 0.2 μg/ml insulin, 0.5 μg/ml transferrin and 0.12 μg/ml bovine serum albumin (BSA). Protease blockers or peptides were added directly to the cell suspension from 10×solutions 10 min before plating.
Spinal cord myelin from young adult Lewis rats was purified on a discontinuous sucrose gradient (Colman et al., 1982, J. Cell Biol. 95:598-608; Schwab and Caroni, 1988, J. Neurosci. 8:2381-2393) and stored in 100 mM sucrose, 25 mM TRIS/HCl pH 7.4 at −80° C. up to 6 months. The myelin suspension ([…]) was incubated for 30 min on poly-D-lysine-coated wells (PLYS-wells). Unbound myelin membranes were removed by rinsing twice with CMF-Hank's and once with MEMα. Myelin-coated wells were used immediately for the spreading assay by adding 9'000 C6 cells per cm^2. Experiments were scored as described (Paganetti et al., 1988, J. Cell Biol. 107:2281-2291).

Data set [3] has as its system C6 plasma membrane associated metalloendoprotease. Briefly: Enzyme assay: cbz-FAF[125I]Y-NH2 degradation by C6 plasma membranes with protease blockers. The data set is classed as biochemical, rat. As to the method:
For most experiments, 70-80% confluent cell layers (1 cm^2 wells, 100 μl MEMα) or 2-5 μg C6 plasma membrane (100 μl MEMα) were used. […] If indicated, cell layers or plasma membrane suspensions were preincubated for 30 min with protease blockers or peptides. NEM or iodacetamide incubations of plasma membranes were performed at pH 8.5. The incubation was stopped by loading a 10 μl aliquot of the incubation medium on a thin layer chromatography plate (10 cm height, Kieselgel 60 F254, MERCK, Germany) and air dried. […] Plates were then air dried and exposed on Kodak X-OMAT films (NY, USA) with an intensifying screen. To identify the degradation products on thin-layer chromatography, we run reference peptides under the same conditions.
For the quantification of the activity, the reaction was stopped by addition of an equal volume of chloroform. […] Activity is expressed as % radioactivity contained in the aqueous phase. 100% is the sum of the radioactivity of both phases.

Data set [4] relates to C6 cells. The data set is described as follows: C6 cell infiltration into optic nerve explants. It counts as cell-based, rat. The settings on record: nerves injected with 3 mM peptide, 0.5 mM in medium; 14 days. The method, then: Optic nerve and sciatic nerve explants were prepared as described (Schwab and Thoenen, 1985, J. Neurosci. 5:2415-2423). Briefly, the nerves were rapidly dissected from about 8 week old male rats, cleaned from the meninges, 3 times frozen and thawed using liquid nitrogen, and placed under a teflon ring (diameter 13 mm, thickness 1 mm) sealed to a culture dish with silicon grease. Two chambers connected only by the explants were in this way obtained. 300,000 C6, 3T3 or B16 cells were plated in the inner chamber in DMEM/FCS and incubated for 5 to 20 days. The medium was changed every other day. Cultures were fixed overnight with 4% formalin. The nerve explants were mounted with Tissue-Tek, 10 to 15 μm sections were cut in a cryostate and collected on gelatine coated cover slips. After drying at room temperature overnight, the sections were stained in 0.75% cresyl violet, and evaluated. The infiltrated cells were counted for each 0.1 mm of the explants, starting from the tip where cells were added. Due to the 15 day incubation, the explants were often different in diameter. Therefore, only the central part of the nerves (0.25 mm) were considered, since only this part of the explants presented a good histological quality. Inhibition experiments were performed with nerve explants previously injected from both sides with 2 μl of 3 mM cbz-tyr-tyr or cbz-ala-phe solutions.

Setting [5] is: C6 cells, 1,10-phenanthroline 0.3 mM, antibody as labelled or none, 150 minutes.

Like-named read-outs stand apart in the source and are kept apart here. Where a SMILES comes first, the peptide text is derived from it. [ ]: non-standard residue; d: D form. The star is where a group is joined. Sta = CC(C)C[C@H](N)[C@@H](O)CC(=O)O; Isovaleryl = CC(C)CC(=O)*; Cbz = O=C(OCc1ccccc1)*

As for `c1cnc2c(c1)ccc1cccnc12` [1,10-phenanthroline], in the data set on C6 cells [1] (1,10-phenanthroline up to 0.5 mM), the “Effect on C6 cell spreading on control substrates (PLYS, glass, PNS myelin), in words” value is “did not impair C6 cell spreading”. Also, the “Concentration exerting a general toxic effect on all substrates” value in the data set with C6 cells [1] (C6 cells, 3 hours) is reported as “above 0.5 mM”. For the same compound, the “% inhibition on CNS lipos.” value with C6 cells [1] (C6 cells, 1,10-phenanthroline 0.3 mM, antibody as labelled or none) came to 46%. In the data set on C6 cells [1] (setting [5]), the “Spreading value on CNS lipos.” value is recorded as 1.35 μm^2 10^3. For the same compound, in the data set with C6 cells [1] (setting [5]), the “Spreading value on PLYS” value is recorded as 2.49 μm^2 10^3. For the same compound, the “Inhibition on CNS (%)” value in the data set with C6 cells [1] (C6 cells) stood at 67%. Besides, the concentration for half-maximal inhibition (IC50) in the data set with C6 cells [1] (Rattus norvegicus, C6, Section 9, read-out: Half maximal inhibition (IC50) of C6 spreading on CNS myelin) came out at 200 µM; with C6 glioblastoma cells (Rattus norvegicus, C6 cell spreading on CNS myelin, read-out: IC50 on CNS myelin), 200 µM; with C6 glioblastoma cells (Rattus norvegicus, C6 cell spreading on PLYS, read-out: IC50 PLYS), 600 µM; in data set [3], 200 µM. In the data set on C6 cells [1] (after 2 hours in culture), the “Maximal inhibition of C6 cell spreading on CNS myelin” value is reported as “up to 67%”. Further, the “Effect on neutralization of CNS myelin inhibitory activity by C6 plasma membranes, in words” value in the data set on 3T3 cells is on record as “completely blocked the C6 plasma membrane effect”. In addition, the “C6 cells on white matter of cerebellar frozen sections, in words” value in the data set with C6 cells [2] is “dramatically changed the distribution and behavior of C6 cells on the white matter areas”. For the same compound, the results for the “Effect on cbz-FAF[^125I]Y-NH2 degradation by C6 plasma membranes, in words” value in data set [3] and in data set [3] (listed as o-phenanthroline) were “completely blocked the degradation” and “blocked completely either activities”, respectively.

With `CC(=O)N[C@@H](CC(C)C)C(=O)N[C@@H](CC(C)C)C(=O)N[C@H](C=O)CCCNC(=N)N` [leupeptine], the “Inhibition on CNS (%)” value with C6 cells [1] (C6 cells) stood at 8%. Besides, the “Effect on neutralization of CNS myelin inhibitory activity by C6 plasma membranes, in words” value in the data set on 3T3 cells is on record as “did not inhibit this effect”. Moreover, in data set [3], the “Effect on cbz-FAF[^125I]Y-NH2 degradation by C6 plasma membranes, in words” value was “had no effect”.

`NC(=O)[C@H](Cc1ccccc1)NC(=O)CNC(=O)OCc1ccccc1` [cbz-gly-phe-NH2, carbobenzoxy-glycine-phenylalanine-amide] (Cbz-Gly-Phe-NH2): the “Inhibition on CNS (%)” value in the data set with C6 cells [1] (C6 cells) amounted to 55%. Moreover, in the data set with 3T3 cells, the “Effect on neutralization of CNS myelin inhibitory activity by C6 plasma membranes, in words” value is “completely blocked the C6 plasma membrane effect”.

For `CC(C)CC(=O)N[C@H](C(=O)N[C@H](C(=O)N[C@@H](CC(C)C)[C@@H](O)CC(=O)N[C@@H](C)C(=O)N[C@@H](CC(C)C)[C@@H](O)CC(=O)O)C(C)C)C(C)C` [pepstatine] (Isovaleryl-VV[Sta]A[Sta]-OH), the “Inhibition on CNS (%)” value with C6 cells [1] (C6 cells) stood at 3%. In addition, the “Effect on neutralization of CNS myelin inhibitory activity by C6 plasma membranes, in words” value in the data set on 3T3 cells was “did not inhibit this effect”. The “Effect on cbz-FAF[^125I]Y-NH2 degradation by C6 plasma membranes, in words” value in data set [3] is on record as “had no effect”.

Turning to `O=C(N[C@@H](Cc1ccc(O)cc1)C(=O)N[C@@H](Cc1ccc(O)cc1)C(=O)O)OCc1ccccc1` [cbz-tyr-tyr, carbobenzoxy-tyrosine-tyrosine] (Cbz-Tyr-Tyr-OH), the “Maximal inhibition of C6 cell spreading on CNS myelin” value in the data set with C6 cells [1] (2 h) is “up to 67%”. In the data set on C6 cells [1] (C6 cells), the “Inhibition on CNS (%)” value was 45%. For the same compound, the “C6 cell infiltration into optic nerve explants, in words” value in the data set on C6 cells [4] was “inhibited C6 cell infiltration in all the 8 nerves examined”. Also, the “C6 cells on white matter of cerebellar frozen sections, in words” value in the data set with C6 cells [2] was “dramatically changed the distribution and behavior of C6 cells on the white matter areas”. Moreover, the IC50 with C6 glioblastoma cells came to 300 µM.
